Assay results reported in PMC8769378, “Underlining the Importance of Peripheral Protic Functional Groups to Enhance the Proton Exchange of Gd-Based MRI Contrast Agents” (Inorganic Chemistry, 2021).

Experiment: Protonation constants of the Gd^III complexes by pH potentiometry
Type: physicochemical
Conditions: 0.15 M NaCl, 298 K
Source text: The metal complexes of biomedical interest must show a high in vivo stability, which includes high thermodynamic stability and kinetic inertness to allow targeting applications and to avoid possible toxic effects derived by metal ion and ligand release via transmetalation or transchelation reactions.[2],[3],[13] The protonation constants of L2 as well as the stability and the protonation constants of GdL2 and those of the most important endogenous divalent metal complexes (Ca^II-, Zn^II-, and Cu^II) were determined by pH potentiometry (Table 1 and Table S1). In the case of GdL1, we were interested in determining the dissociation constant of the hydroxyl group that was measured also by pH potentiometry (Table 1). […]
The stability and protonation constants of Ca^2+, Zn^2+, and Cu^2+ complexes formed with the […] ligand were determined by pH potentiometric titration. […] The protonation constants of the GdL1 and GdL2 complexes were determined using pH potentiometry by titrating the preprepared complexes from pH = 3.0 to pH = 12 for GdL2 and from pH = 4.0 to pH = 12 for GdL1 with 0.2 M NaOH. The stability constants of GdL2 were determined by the “out-of-cell” technique because of the slow formation reaction. The pH range of the complexation equilibria and the time needed to reach the equilibria were determined by relaxometry for the formation of GdL2. […]

Gd(L)H–1 (log KGd(L)H-1, protonation constant of the alkoxide): 9.58 (3)
Gd(HL) (log K, protonation constant of the Gd complex) (carboxylate of the 2-hydroxypropanoic arm): 3.36 (3)
Compound: O=C(O)CN1CCN(CC(=O)O)CCN(C[C@@H](O)C(=O)O)CCN(CC(=O)O)CC1 [L2, (R)2,2′,2″-(10-(2-Carboxy-2-hydroxyethyl)-1,4,7,10-tetraazacyclododecane-1,4,7-triyl) Triacetic Acid]
